Experimental data from patent publication US8529877B2, “Benzylidene compounds comprising phosphono-groups” (BASF SE, priority 2008, dated 2013).

How the values were obtained:
Assay type in all cases: physicochemical
[1] = Photostability of Butyl Methoxydibenzoylmethane in O/W sunscreen film, solar simulator, HPLC; settings: for Residual Butyl Methoxydibenzoylmethane: solar simulator 2 hours (5400 kJ/m2)
Experimental: The photostability of Butyl Methoxydibenzoylmethane is determined by spreading the emulsion as a 20 μm thick film on a quartz plate. The film is irradiated using a solar simulator for 2 hours (5400 kJ/m2). After irradiation, the quartz plate is plunged into 5 ml of tetrahydrofurane. The amount of UV-A filter Butyl Methoxydibenzoylmethane is then determined using high performance liquid chromatography. The residual Butyl Methoxydibenzoylmethane is determined to be 42%.
The photostability of Butyl Methoxydibenzoylmethane in the comparative formulation B is determined as described above for formulation A. The residual Butyl Methoxydibenzoylmethane is determined to be 4%.

[2] = Photostability of the UV filter in highly diluted ethanol solution under irradiation, analysed by UV spectroscopy; settings: for Half time: first order kinetic fit, half-life under COLIPA standard sun irradiation
Experimental: The method used for assessment of photostability is based on the irradiation of a highly diluted solution of the UV-filter. The analysis after certain doses of irradiation was performed by UV-spectroscopy. The concentration of the UV-absorber in ethanol is adjusted to values between 1·10^−5 and 1·10^−6 mol/l, such that the absorbance of the solution in cuvette of 1 cm optical pathlength is equal or smaller than 0.2. The mutual protection of filter molecules can be excluded under such conditions.
Prior to irradiation of a sample the UVB-intensity at the sample position is measured with a UV-radiometer (RM-12, Dr. Gröbel Electronic GmbH). This radiometer was calibrated by comparison with a measurement of the spectral output of the metal halide lamp (including light guide and cut-off filter) using a wavelength-resolved radiometer (Gamma C11). Therefore the relationship of the reading of the RM-12 radiometer and the corresponding spectral output of the lamp is known, and one is able to determine the wavelength-resolved intensities by measuring the UVB-intensity. By changing the distance between the end of the light guide and the cuvette, the UVB-intensity can be varied in the range of 100 μW/cm^2 and 4500 μW/cm^2.
For sample irradiation the highest possible intensity was used (4.5 mW/cm^2 UVB-intensity measured with the Macam 103 radiometer). The irradiation time was varied from 0 to 180 min. The dose the sample has received after 180 minutes corresponds to 60 MED. During irradiation the sample was stirred. After certain intervals of irradiation, the samples were analysed in a UV-spectrometer (Perkin Elmer, Lambda 16).
From the absorbance values at each dose of irradiation the concentration may be calculated using Lambert-Beer's law. In order to get the half-life of the substance, a first order kinetic model was fitted to the experimental data. Since the UV-spectrum of the lamp and the UV-spectrum of the COLIPA standard sun are known, one can calculate the respective half-life of the UV-absorber under conditions of COLIPA standard sun irradiation [Bernd Herzog, Stefan Müller, Myriam Sohn, Uli Osterwalder, “New Insight and Prediction of Photostablity of Sunscreens”, SÖFW Journal 133, 26-36 (2007)].
The investigated half-time values and recovery after irradiation (10 MED) of some specific benzotropolones are listed in the table below: […]

[3] = UV shielding properties: UV spectra in ethanol (absorption maximum, A1%1cm); set-up: Absorption maximum λmax: unit not given here; settings: for Absorption maximum λmax / A^1%1 cm: UV spectra in ethanol; for A^1%1 cm: at the absorption maximum; for Absorption bands (coverage of UV range): UV spectrum in ethanol
Source text: The UV shielding properties of the bisbiphenyl triazine derivatives were investigated by measuring their UV spectra in ethanol. In the following table the investigated absorption maxima (λmax) together with the corresponding A^1%1cm values are listed.

[4] = Photostability of Ethylhexyl Methoxycinnemate in O/W sunscreen film, solar simulator, HPLC; settings: for Residual Ethylhexyl Methoxycinnemate: solar simulator 4 hours (10800 kJ/m2)
Experimental: The photostability of the UV-B filter Ethylhexyl Methoxycinnemate is determined by spreading the emulsion as a 20 μm thick film on a quartz plate. The film is irradiated using a solar simulator for 4 hours (10800 kJ/m2). After irradiation, the quartz plate is plunged into 5 ml of tetrahydrofurane. The amount of UV-B filter Ethylhexyl Methoxycinnemate is then determined using high performance liquid chromatography. The residual Ethylhexyl Methoxycinnemate is determined to be 59%.
The photostability of Ethylhexyl Methoxycinnemate in the comparative formulation B is determined as described above for formulation A. The residual Ethylhexyl Methoxycinnemate is determined to be 38%.

[5] = O/W Sunscreen Formulation A (with P-01), 20 μm film on quartz plate
[6] = comparative formulation B (without P-01), 20 μm film
[7] = formulation A versus comparative formulation B

Compound | Half time [2] | Absorption maximum λmax [3] | A^1%1 cm [3] | Absorption bands (coverage of UV range) [3] | other results
COc1ccc(C(=O)CC(=O)c2ccc(C(C)(C)C)cc2)cc1 [Butyl Methoxydibenzoylmethane, 1-[4-(1,1-dimethylethyl)phenyl]-3-(4-methoxyphenyl)propane-1,3-dione] | – | – | – | – | Residual Butyl Methoxydibenzoylmethane [1, 5]: 42%; Residual Butyl Methoxydibenzoylmethane [1, 6]: 4%
CCOC(=O)/C(=C\c1ccc(OC)cc1)P(=O)(OCC)OCC [Compound P-1] | 14 311 h | 303 | 519 | broad absorption bands | Photodegradation after irradiation of 10 MED [2]: no photodegradation; Stabilization factor of Butyl Methoxydibenzoylmethane [1, 7]: at least 10; Stabilization factor of Ethylhexyl Methoxycinnemate [4, 7]: 1.55
CCOC(=O)/C(=C\c1ccc(/C=C(\C(=O)OCC)P(=O)(OCC)OCC)cc1)P(=O)(OCC)OCC [Compound P-2] | 172 h | 302 | 500 | broad absorption bands | –
CCOC(=O)/C(=C\c1ccc(N(CC)CC)cc1)P(=O)(OCC)OCC [Compound P-3] | 320 h | 366 | 624 | broad absorption bands | –
CCOC(=O)/C(=C\c1cc(OC)c(O)c(OC)c1)P(=O)(OCC)OCC [Compound P-4] | 100 h | 322 | 390 | broad absorption bands | –
CCOP(=O)(OCC)C(=Cc1ccc(-c2ccccc2)cc1)P(=O)(OCC)OCC [Compound P-5] | 7 h | 299 | 427 | broad absorption bands | –
CCOP(=O)(OCC)C(=Cc1ccc(OC)cc1)P(=O)(OCC)OCC [Compound P-6] | 11285 h | 313 | 575 | broad absorption bands | –
CCOC(=O)/C(=C\c1ccc(-c2ccccc2)cc1)P(=O)(OCC)OCC [Compound P-7] | 466.6 h | 302 | 650 | broad absorption bands | Photodegradation after irradiation of 10 MED [2]: no photodegradation
CCOC(=O)/C(=C\c1ccc(NC(C)=O)cc1)P(=O)(OCC)OCC [Compound P-17] | 947.6 h | 308 | 604 | – | –
CCOC(=O)/C(=C\c1ccc(-c2ccc(/C=C(\C(=O)OCC)P(=O)(OCC)OCC)cc2)cc1)P(=O)(OCC)OCC [Compound P-19] | 220.6 h | 324 | 733 | – | –
CCOC(=O)C(=C1c2ccccc2-c2ccccc21)P(=O)(OCC)OCC [Compound P-20] | 449.2 h | 314 | 371 | – | –
CCOC(=O)/C(=C\c1ccc(O)c(OC)c1)P(=O)(OCC)OCC [Compound P-21] | – | 319 | 429 | – | –
CCOC(=O)/C(=C\c1cc(OC)c(OC)c(OC)c1)P(=O)(OCC)OCC [Compound P-22] | 262.8 h | 299 | 357 | – | –
CCCCC(CC)COC(=O)C=Cc1ccc(OC)cc1 (centres unmarked) [Ethylhexyl Methoxycinnemate, 2-ethylhexyl 4-methoxycinnamate] | – | – | – | – | Residual Ethylhexyl Methoxycinnemate [4, 5]: 59%; Residual Ethylhexyl Methoxycinnemate [4, 6]: 38%
